Data taken from publication PMC6360668, “Discovery and evaluation of ZT55, a novel highly-selective tyrosine kinase inhibitor of JAK2^V617F against myeloproliferative neoplasms” (Journal of Experimental & Clinical Cancer Research : CR, 2019).

Target: JAK2 (Homo sapiens, UniProt O60674)
Assay: HTRF KinEASE cell-free kinase assay with recombinant human JAK2
Format: biochemical

Chain of JAK2 (O60674 whole entry): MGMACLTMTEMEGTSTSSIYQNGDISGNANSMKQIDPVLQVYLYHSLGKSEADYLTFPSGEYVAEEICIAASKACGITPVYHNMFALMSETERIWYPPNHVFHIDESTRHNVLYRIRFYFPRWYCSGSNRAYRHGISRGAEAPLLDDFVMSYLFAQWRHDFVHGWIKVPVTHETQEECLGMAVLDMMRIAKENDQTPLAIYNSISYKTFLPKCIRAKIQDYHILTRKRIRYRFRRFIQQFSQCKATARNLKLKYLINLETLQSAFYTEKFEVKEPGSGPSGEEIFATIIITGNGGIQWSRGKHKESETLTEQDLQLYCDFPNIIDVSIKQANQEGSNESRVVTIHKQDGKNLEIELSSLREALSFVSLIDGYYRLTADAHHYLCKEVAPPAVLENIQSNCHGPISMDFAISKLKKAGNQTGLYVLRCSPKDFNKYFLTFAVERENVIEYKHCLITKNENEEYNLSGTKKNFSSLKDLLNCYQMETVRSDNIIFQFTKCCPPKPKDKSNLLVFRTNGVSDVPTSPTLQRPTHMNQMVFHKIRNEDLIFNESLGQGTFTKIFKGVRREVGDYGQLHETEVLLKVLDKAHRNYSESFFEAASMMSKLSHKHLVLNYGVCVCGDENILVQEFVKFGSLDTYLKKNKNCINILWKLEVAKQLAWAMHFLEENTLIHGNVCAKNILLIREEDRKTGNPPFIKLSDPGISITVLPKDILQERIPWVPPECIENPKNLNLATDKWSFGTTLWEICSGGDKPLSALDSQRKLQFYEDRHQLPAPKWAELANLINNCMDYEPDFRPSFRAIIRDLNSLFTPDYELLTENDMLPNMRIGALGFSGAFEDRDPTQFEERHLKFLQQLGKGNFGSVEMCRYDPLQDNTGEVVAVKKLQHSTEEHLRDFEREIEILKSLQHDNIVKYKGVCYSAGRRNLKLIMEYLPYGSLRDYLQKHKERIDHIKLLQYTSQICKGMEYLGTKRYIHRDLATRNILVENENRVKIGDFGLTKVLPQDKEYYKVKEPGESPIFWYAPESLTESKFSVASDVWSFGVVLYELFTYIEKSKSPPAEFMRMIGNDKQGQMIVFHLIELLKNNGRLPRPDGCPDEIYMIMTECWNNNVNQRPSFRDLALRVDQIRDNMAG

## COc1ccccc1NC(=O)Cc1cn(O)c2ccccc12 [ZT55]
  IC50: 31 nM
